IC50 and inhibition data for 26 compounds are collected here from patent publication US20260297092A1, “PYRAZOLOPYRIMIDINE DERIVATIVES AS INHIBITORS OF NLRP3” (Takeda Pharmaceutical Company Limited, priority 2023, published 2026).

Some results are limits rather than exact numbers.

The test system of assay [1] is TNF-α (NF-κB pathway, THP-1 cells). Put plainly: TNF-α Assay (IC50). The class given is cell-based, human. The following applies: Homo sapiens, 600 ng/mL LPS, 3 hours. The procedure:
TNF-α Assay (Reported as IC50)
Monocytic THP-1 cells (ATCC: TIB-202) were maintained in accordance with the provider's instructions in RPMI media (Life Technologies, Cat #A10491-01); RPMI was supplemented with 10% heat inactivated fetal bovine serum (Hyclone Cat #SH30396.03). The cells were differentiated into macrophages by the addition of 25 ng/mL IFN-7 for 24 hours at 37° C./5% CO2. Media was exchanged with fresh media with no FBS. The cells were plated at 40,000 cells per well in 384-well flat-bottom cell culture plates (Costar 3764) containing compounds (added in 1:1000) in a 1:3.16 serial dilution series in DMSO and were incubated for 30 minutes at 37° C./5% CO2. The NF-κB pathway was activated with the addition of 600 ng/mL LPS and the cells were incubated for 3 hours at 37° C./5% CO2. At the end of the incubation period, supernatant ([…]) was removed, and TNF-alpha were monitored using an ELISA (Human TNF-α ELISA, R&D systems, Cat #DY210) according to the manufacturer's instructions. 100% inhibition is determined with positive control, TPCA-1.
The IC50 values in the TNF-α assay were calculated from a plot of percentage of inhibition versus the inhibitor concentration by a logistics curve fit according to: Y=[Bottom+(Top−Bottom)]/(1+10^[(Log IC50−X)·Hill Slope], where Y was the […] at the inhibitor concentration, X, “Bottom” was the lowest inhibition value, i.e., 0%, “Top” was the maximum inhibition value, i.e., 100%, and the “Hill Slope” described the slope of the sigmoidal curve between the “Bottom” and “Top” values. The curve fitting was conducted with internally developed software.

In assay [2] the test system is NLRP3 inflammasome (IL-1β production in THP-1 cells). Put plainly: IL-1β TR-FRET Assay (percentage of inhibition at 300 nM, 6 μM or 10 μM). The following applies: Homo sapiens, LPS priming, ATP activation; for inhibition at 0.3 µM: THP-1, 300 nM, read-out: IL-1β inhibitory rate at 300 nM (%); for inhibition at 6 µM: THP-1, 6 μM, read-out: IL-1β inhibitory rate at 6 μM (%). It is filed as cell-based, human. The essentials: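 Percent inhibition of IL-1β used DMSO wells as 0% and 3 μM MCC-950 wells as full inhibition, with supernatant read by HTRF. Beforehand, IFN-γ-differentiated (25 ng/mL, 24 h), LPS-primed (50 ng/mL, 24 h) THP-1 cells received compound 30 min before inflammasome activation by 20 mM ATP for 2 h.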
(In TR-FRET formats the signal depends on donor and acceptor labels being close together.)

In assay [1], `CCOc1nc2nn(-c3c(F)cc(C)cc3C(F)(F)F)cc2c(=O)[nH]1` [Example 73, 6-ethoxy-2-[2-fluoro-4-methyl-6-(trifluoromethyl)phenyl]-2,5-dihydro-4H-pyrazolo[3,4-d]pyrimidin-4-one] came in with an IC50 of more than 30 µM. Also, the inhibition at 0.3 µM in assay [2] came to 97%.

In assay [1], `O=c1[nH]c(COC(F)F)nc2nn(-c3c(F)cc(C4CC4)cc3C(F)F)cc12` [Example 302, 2-[4-cyclopropyl-2-(difluoromethyl)-6-fluorophenyl]-6-[(difluoromethoxy)methyl]-2,5-dihydro-4H-pyrazolo[3,4-d]pyrimidin-4-one] showed a 50% inhibitory concentration (IC50) of more than 30 µM. Besides, the inhibition at 6 µM in assay [2] was determined as 96%.

As for `COC(C)c1nc2nn(-c3c(C)cc(C)cc3O)cc2c(=O)[nH]1` (stereo not shown) [Example 52, 2-(2-hydroxy-4,6-dimethylphenyl)-6-(1-methoxyethyl)-2,5-dihydro-4H-pyrazolo[3,4-d]pyrimidin-4-one], the IC50 in assay [1] is more than 30 µM. The inhibition at 0.3 µM in assay [2] turned out to be 95%.

Compound `CCOc1nc2nn(-c3c(F)cc(C)cc3OC(F)F)cc2c(=O)[nH]1` [Example 108] registered an IC50 in assay [1] of more than 30 µM. Besides, in assay [2], the inhibition at 0.3 µM was 98%.

For the compound `CCOc1nc2nn(-c3c(F)cc(C4CC4)cc3F)cc2c(=O)[nH]1` [Example 103, 2-(4-cyclopropyl-2,6-difluorophenyl)-6-ethoxy-2,5-dihydro-4H-pyrazolo[3,4-d]pyrimidin-4-one], in assay [1], the IC50 was more than 30 µM. Besides, the inhibition at 0.3 µM in assay [2] is 97%.

In assay [1], `CCOc1nc2nn(-c3c(C)cc(OC(F)F)cc3F)cc2c(=O)[nH]1` [Example 109] registered an IC50 of more than 30 µM. Further, the inhibition at 0.3 µM in assay [2] was 99%.

Consider `COC(C)(C)c1nc2nn(-c3c(C)cc(C)cc3O)cc2c(=O)[nH]1` [Example 85, 2-(2-hydroxy-4,6-dimethylphenyl)-6-(2-methoxypropan-2-yl)-2,5-dihydro-4H-pyrazolo[3,4-d]pyrimidin-4-one], for which the IC50 in assay [1] was more than 30 µM. Further, the inhibition at 0.3 µM in assay [2] came out at 92%.

As to `Cc1cc(C)c(-n2cc3c(=O)[nH]c(OCCCN(C)C)nc3n2)c(O)c1` [Example 115, 6-[3-(dimethylamino)propoxy]-2-(2-hydroxy-4,6-dimethylphenyl)-2,5-dihydro-4H-pyrazolo[3,4-d]pyrimidin-4-one], in assay [1], the IC50 was more than 30 µM. Also, in assay [2], the inhibition at 0.3 µM came to 99%.

Take `Cc1cc(C)c(-n2cc3c(=O)[nH]c(O[C@H]4CCOC4)nc3n2)c(O)c1` [Example 14, 2-(2-hydroxy-4,6-dimethylphenyl)-6-{[(3S)-oxolan-3-yl]oxy}-2,5-dihydro-4H-pyrazolo[3,4-d]pyrimidin-4-one]: the 50% inhibitory concentration (IC50) in assay [1] is more than 30 µM. The inhibition at 0.3 µM in assay [2] amounted to 96%.

`CCOc1nc2nn(-c3c(F)cc(C)cc3C3CC3)cc2c(=O)[nH]1` [Example 105, 2-(2-cyclopropyl-6-fluoro-4-methylphenyl)-6-ethoxy-2,5-dihydro-4H-pyrazolo[3,4-d]pyrimidin-4-one] came in with a half-inhibitory concentration (IC50) in assay [1] of more than 30 µM. In assay [2], the inhibition at 0.3 µM was determined as 99%.

Compound `CCOc1nc2nn(-c3c(F)cc(OC(F)(F)F)cc3Br)cc2c(=O)[nH]1` [Example 104, 2-[2-bromo-6-fluoro-4-(trifluoromethoxy)phenyl]-6-ethoxy-2,5-dihydro-4H-pyrazolo[3,4-d]pyrimidin-4-one] gave an IC50 in assay [1] of more than 30 µM. The inhibition at 0.3 µM in assay [2] stood at 99%.

As to `CCOc1nc2nn(-c3c(F)cc(C4CC4)cc3Br)cc2c(=O)[nH]1` [Example 114, 2-(2-bromo-4-cyclopropyl-6-fluorophenyl)-6-ethoxy-2,5-dihydro-4H-pyrazolo[3,4-d]pyrimidin-4-one], the IC50 in assay [1] was more than 30 µM. Besides, in assay [2], the inhibition at 0.3 µM turned out to be 98%.

In turn, `COc1ccccc1-c1nc2nn(-c3c(C)cc(C)cc3O)cc2c(=O)[nH]1` [Example 47, 2-(2-hydroxy-4,6-dimethylphenyl)-6-(2-methoxyphenyl)-2,5-dihydro-4H-pyrazolo[3,4-d]pyrimidin-4-one] registered an IC50 in assay [1] of more than 30 µM. Moreover, in assay [2], the inhibition at 0.3 µM worked out at 98%.

In the case of `Cc1cc(C)c(-n2cc3c(=O)[nH]c(C(F)F)nc3n2)c(O)c1` [Example 94, 6-(difluoromethyl)-2-(2-hydroxy-4,6-dimethylphenyl)-2,5-dihydro-4H-pyrazolo[3,4-d]pyrimidin-4-one], in assay [1], the 50% inhibitory concentration (IC50) is more than 30 µM. Further, the inhibition at 0.3 µM in assay [2] worked out at 83%.

Take `CCOc1nc2nn(-c3c(F)cc(OC)cc3Br)cc2c(=O)[nH]1` [Example 157, 2-(2-bromo-6-fluoro-4-methoxyphenyl)-6-ethoxy-2,5-dihydro-4H-pyrazolo[3,4-d]pyrimidin-4-one]: the IC50 in assay [1] is more than 30 µM. Also, the inhibition at 0.3 µM in assay [2] is 102%.

In turn, `CCOc1nc2nn(-c3c(C)cc(C)cc3Br)cc2c(=O)[nH]1` [Example 118, 2-(2-bromo-4,6-dimethylphenyl)-6-ethoxy-2,5-dihydro-4H-pyrazolo[3,4-d]pyrimidin-4-one] had an IC50 in assay [1] of more than 30 µM. Also, the inhibition at 0.3 µM in assay [2] worked out at 101%.

The compound `CCOc1nc2nn(-c3c(F)cc(C)cc3OC)cc2c(=O)[nH]1` [Example 93, 6-ethoxy-2-(2-fluoro-6-methoxy-4-methylphenyl)-2,5-dihydro-4H-pyrazolo[3,4-d]pyrimidin-4-one] had an IC50 in assay [1] of more than 30 µM. The inhibition at 0.3 µM in assay [2] was 80%.

Consider `O=c1[nH]c([C@H]2COCCO2)nc2nn(-c3c(F)cc(C4CC4)cc3C(F)F)cc12` (single isomer, unassigned) [Example 312, 2-[4-cyclopropyl-2-(difluoromethyl)-6-fluorophenyl]-6-[(2R)-1,4-dioxan-2-yl]-2,5-dihydro-4H-pyrazolo[3,4-d]pyrimidin-4-one or 2-[4-cyclopropyl-2-(difluoromethyl)-6-fluorophenyl]-6-[(2S)-1,4-dioxan-2-yl]-2,5-dihydro-4H-pyrazolo [3,4-d]pyrimidin-4-one], for which, in assay [1], the IC50 is more than 30 µM. The inhibition at 6 µM in assay [2] was 104%.

For `Cc1cc(C2CC2)cc(C)c1-n1cc2c(=O)[nH]c(COC(F)(F)F)nc2n1` [Example 202, 2-(4-cyclopropyl-2,6-dimethylphenyl)-6-[(trifluoro-methoxy)methyl]-2,5-dihydro-4H-pyrazolo[3,4-d]pyrimidin-4-one], the IC50 in assay [1] was more than 30 µM. Also, the inhibition at 0.3 µM in assay [2] worked out at 97%.

As for `Cc1cc(C2CC2)cc(C)c1-n1cc2c(=O)[nH]c([C@@]3(F)CCOC3)nc2n1` [Example 247, 2-(4-cyclopropyl-2,6-dimethylphenyl)-6-(3-fluorooxolan-3-yl)-2,5-dihydro-4H-pyrazolo[3,4-d]pyrimidin-4-one], in assay [1], the IC50 is more than 30 µM. Besides, the inhibition at 6 µM in assay [2] is 100%.

Turning to `Cc1cc(C2CC2)cc(C)c1-n1cc2c(=O)[nH]c(CC#N)nc2n1` [Example 317, [2-(4-cyclopropyl-2,6-dimethylphenyl)-4-oxo-4,5-dihydro-2H-pyrazolo[3,4-d]pyrimidin-6-yl]acetonitrile], in assay [1], the IC50 is more than 30 µM. For the same compound, the inhibition at 6 µM in assay [2] came out at 100%.

For `CCOc1nc2nn(-c3c(C)cc(C4CC4)cc3COC)cc2c(=O)[nH]1` [Example 164, 2-[4-cyclopropyl-2-(methoxymethyl)-6-methylphenyl]-6-ethoxy-2,5-dihydro-4H-pyrazolo[3,4-d]pyrimidin-4-one], the IC50 in assay [1] was more than 30 µM. Moreover, the inhibition at 0.3 µM in assay [2] is 95%.

As to `CCOc1nc2nn(-c3c(F)cc(Br)cc3Br)cc2c(=O)[nH]1` [Example 128, 2-(2,4-dibromo-6-fluorophenyl)-6-ethoxy-2,5-dihydro-4H-pyrazolo[3,4-d]pyrimidin-4-one], in assay [1], the IC50 is more than 30 µM. Also, the inhibition at 0.3 µM in assay [2] was found to be 97%.

Compound `CCOc1nc2nn(-c3ccc(C)cc3O)c(CC)c2c(=O)[nH]1` [Example 140, 6-ethoxy-3-ethyl-2-(2-hydroxy-4-methylphenyl)-2,5-dihydro-4H-pyrazolo[3,4-d]pyrimidin-4-one] yielded an IC50 in assay [1] of more than 30 µM. Also, the inhibition at 0.3 µM in assay [2] was found to be 93%.

Consider `Cc1ccc(-n2cc3c(=O)[nH]c(OCC(C)OCc4ccccc4)nc3n2)c(C)c1` (racemic) [Example 99, 6-[2-(benzyloxy)propoxy]-2-(2,4-dimethylphenyl)-2,5-dihydro-4H-pyrazolo[3,4-d]pyrimidin-4-one], for which, in assay [1], the IC50 was more than 30 µM. For the same compound, the inhibition at 0.3 µM in assay [2] came out at 41%.

In assay [1], `Cc1cc(C)c(-n2cc3c(=O)[nH]c(C4(C)CCCCO4)nc3n2)c(O)c1` (stereo not shown) [Example 90, 2-(2-hydroxy-4,6-dimethylphenyl)-6-(2-methyloxan-2-yl)-2,5-dihydro-4H-pyrazolo[3,4-d]pyrimidin-4-one] came in with an IC50 of more than 30 µM. The inhibition at 0.3 µM in assay [2] was found to be 85%.

In general, IC50 refers to the concentration that inhibits the measured activity by half. Read a high IC50 as a need for much substance.
